Experimental findings from PubChem BioAssay AID2743 (NMMLSC, 2010) are described below.

The structures appear in SMILES notation. The source made the active and inactive calls.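 The calls were made as follows: active = fitted half-maximal concentration for change in GFP expression of 33 µM or less; inactive = the rest.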

Test system in one assay: not listed separately
Nature of the assay: concentration-dependent AGP1-GFP change, TOR pathway – cell-based, flow cytometry, S. cerevisiae, MLPCN hits, dose response (AID 2743). Conditions: S. cerevisiae AGP1-GFP strain, flow cytometry GFP, 3 h; at 33 µM (top of the series). Background: Flow cytometry measures light scatter and fluorescence of single cells or particles in a stream.
For `O=C(OCC(=O)N1CCN(C(=O)c2ccco2)CC1)c1cc(-c2ccccc2)nc2ccccc12`, the GFP fluorescence (kMESF) is 43.7 kMESF (inactive).

For the compound `CCN(CC)c1ccc(/C=C2\C(=O)c3ccc(C(=O)O)cc3C2=O)cc1`, the GFP fluorescence (kMESF) is 747 kMESF (inactive).

`[O-][n+]1cccc2c(Br)cc(Br)c(O)c21`: the GFP fluorescence (kMESF) was 50.1 kMESF (inactive).

Take `CCCc1ccc(OCC(=O)NNC(=S)NC(=O)c2ccco2)cc1`: the GFP fluorescence (kMESF) was 38.1 kMESF (inactive).

Consider `Cc1c(N2C(=O)/C(=C\c3ccccc3O)SC2=S)c(=O)n(-c2ccccc2)n1C`, for which the GFP fluorescence (kMESF) is 44.8 kMESF (inactive).

Regarding `Cc1cc(NC(c2ccc(Cl)cc2)c2ccc3cccnc3c2O)no1` (stereo not drawn), the GFP fluorescence (kMESF) is 34 kMESF (inactive).

For the compound `COc1cc(N=c2ssnc2Cl)cc(OC)c1`, the GFP fluorescence (kMESF) was 38.8 kMESF (inactive).

With `CC(C)(C)c1nnc(N/N=C/c2cc(Br)ccc2O)n(N)c1=O`, the GFP fluorescence (kMESF) is 34.2 kMESF (inactive).

For `O=C(Oc1ccnc2cc(Cl)ccc12)N1CCOCC1`, the GFP fluorescence (kMESF) was 35.7 kMESF (inactive).

Consider `CN(O)/C=c1/ccc2c(n1)C(=O)C=CC=2`, for which the GFP fluorescence (kMESF) was 39.5 kMESF (inactive).

As for `O=C(/C=C/c1ccccc1[N+](=O)[O-])c1ccccc1Br`, the GFP fluorescence (kMESF) was 50.7 kMESF (inactive).

With `O=[N+]([O-])c1ccc(Sc2nc3ccccc3o2)c([N+](=O)[O-])c1`, the GFP fluorescence (kMESF) was 37.2 kMESF (inactive).

On to `Cc1ccc(C(=O)Oc2oc(-c3ccco3)nc2C=Nc2ccc(Cl)cc2)cc1`, for which the GFP fluorescence (kMESF) was 35 kMESF (inactive).

Consider `COc1ccc(/C=C2\C(=O)ON=C2c2ccccc2)cc1`, for which the GFP fluorescence (kMESF) was 28 kMESF (inactive).

As for `Cc1cc(C2CCCCC2)n(O)c(=O)c1`, the GFP fluorescence (kMESF) was 37.5 kMESF (inactive).

For `O=[N+]([O-])c1ccc(O)c(/C=N/Nc2ccccn2)c1`, the GFP fluorescence (kMESF) was 30.3 kMESF (inactive).

For the compound `O=C1C=CC(=O)N1c1ccc(Sc2ccc([N+](=O)[O-])cc2)cc1`, the GFP fluorescence (kMESF) was 38.7 kMESF (inactive).

Turning to `O=C(/C=C/c1ccc(Cl)c([N+](=O)[O-])c1)c1cccnc1`, the GFP fluorescence (kMESF) was 35.8 kMESF (inactive).

In the case of `O=C(/C=C/c1ccccc1)c1cc(Br)ccc(=O)c1O`, the GFP fluorescence (kMESF) was -1.01 kMESF (inactive).

On to `Cc1ccc2[nH]cc(/C=C/c3cc[n+](C)cc3)c2c1`, for which the GFP fluorescence (kMESF) is 48.3 kMESF (inactive).

As for `NC(=O)COc1ccc(C(=O)/C=C2/C(=O)Nc3ccccc32)cc1`, the GFP fluorescence (kMESF) was 46.2 kMESF (inactive).

For the compound `CC[C@]1(c2ccccc2OC)ON(c2ccccc2C(F)(F)F)C1=O`, the GFP fluorescence (kMESF) is 32.6 kMESF (inactive).

As to `O=C1C2C3C=CC(CO)(O3)C2C(=O)N1c1ccc(-c2ccccc2)cc1` (stereo not drawn), the GFP fluorescence (kMESF) was 40.8 kMESF (inactive).

As to `CCn1c(=O)c(C(=O)Nc2nc3ccccc3[nH]2)c(O)c2ccccc21`, the GFP fluorescence (kMESF) is 12.8 kMESF (inactive).

With `CC1(C)OC(c2ccccc2)=C/C(=C/C=C2C(=O)NC(=S)NC2=O)O1`, the GFP fluorescence (kMESF) is 36.6 kMESF (inactive).

On to `Cc1ccc(-c2nc(C)sc2CC(=O)Nc2nnc(C)s2)cc1`, for which the GFP fluorescence (kMESF) is 34.5 kMESF (inactive).

Consider `CC(=O)Oc1cccc(N2C(=O)c3cccc4c([N+](=O)[O-])ccc(c34)C2=O)c1`, for which the GFP fluorescence (kMESF) was 31.2 kMESF (inactive).

Regarding `O=C1Oc2ccccc2C(=O)/C1=C/c1ccccc1O`, the GFP fluorescence (kMESF) was 39.4 kMESF (inactive).

With `COc1ccc(C(=O)/C=C2/C(=O)Nc3ccccc32)cc1OC`, the GFP fluorescence (kMESF) was 43.9 kMESF (inactive).

As to `O=C(O)c1cc[c]([Hg][Cl])cc1`, the GFP fluorescence (kMESF) is 32.1 kMESF (inactive).

Take `O=C(OCC(=O)N1CCN(C(=O)c2ccco2)CC1)c1cc(-c2ccc(Cl)c(Cl)c2Cl)nc2ccccc12`: the GFP fluorescence (kMESF) is 50.9 kMESF (inactive).

For the compound `N/C(=N\OC(=O)c1ccc(Cl)cc1Cl)c1ccccc1`, the GFP fluorescence (kMESF) is 27.3 kMESF (inactive).

Regarding `O=C(O)/C=C/C(=O)c1ccc2c(c1)CCc1ccccc1-2`, the GFP fluorescence (kMESF) is 18.9 kMESF (inactive).

For `C[C@H]1C[C@@H](C)C(=O)[C@@H]([C@H](O)CC2CC(=O)NC(=O)C2)C1`, the GFP fluorescence (kMESF) is 25.3 kMESF (inactive).

As for `COc1cc(N2C(=O)C=CC2=O)c(OC)cc1Cl`, the GFP fluorescence (kMESF) is 33.8 kMESF (inactive).

Turning to `COc1ccc(OC)c(S(=O)(=O)ON2C(=O)c3ccccc3C2=O)c1`, the GFP fluorescence (kMESF) is 39.4 kMESF (inactive).

As to `Cc1nn2c(NCc3ccccn3)c3c(nc2c1-c1ccccc1)CCC3`, the GFP fluorescence (kMESF) was 40.6 kMESF (inactive).

For the compound `N/C(=N\OC(=O)c1ccccc1Cl)c1ccc(Cl)cc1`, the GFP fluorescence (kMESF) was 25.7 kMESF (inactive).

In the case of `COc1ccc(C(=O)NC(=S)NNC(=O)c2cnccn2)cc1OC`, the GFP fluorescence (kMESF) was 30.2 kMESF (inactive).

Regarding `COc1ccc(N2C(=O)/C(=C/c3cccs3)C(=O)NC2=S)cc1`, the GFP fluorescence (kMESF) was 27.3 kMESF (inactive).

The subject of a further assay is S. cerevisiae AGP1-GFP strain, flow cytometry GFP, 3 h. The description is as above.
Conditions: not given
As a reminder, the EC50 is the midpoint of the concentration-response curve. `O=C(C#Cc1cccc([N+](=O)[O-])c1)c1ccccc1`: the EC50 is 305 nM.

On to `CCN(CC)C(=O)Oc1ccnc2cc(Cl)ccc12`, for which the EC50 is 7220 nM.

Regarding `CCCOc1ccc(C(=O)NNC(=S)NC(=O)CC)cc1`, the EC50 was 1940 nM.

On to `CS(=O)(=O)c1nc(-c2ccccc2)cc(C(F)(F)F)n1`, for which the EC50 is 653 nM.

Take `CCOC(=O)CCS(=O)(=O)c1nc(-c2ccccc2)cc(C(F)(F)F)n1`: the EC50 was 941 nM.

As for `CS(=O)(=O)c1nc(-c2cccs2)cc(C(F)(F)F)n1`, the EC50 was 872 nM.

For `COc1ccc(N2CCN(C(=O)c3ccc(Br)cc3)CC2)c([N+](=O)[O-])c1`, the EC50 was 3840 nM.

Turning to `O=C(OCC(=O)N1CCN(C(=O)c2ccco2)CC1)c1cc(-c2cccc(Br)c2)nc2ccccc12`, the EC50 was 2810 nM.

As to `CCOC(=O)CS(=O)(=O)c1nc(-c2ccccc2)cc(C(F)(F)F)n1`, the EC50 was 1380 nM.

Consider `COC(=O)CCS(=O)(=O)c1nc(-c2ccccc2)cc(C(F)(F)F)n1`, for which the EC50 was 943 nM.

For the compound `CC(C)(C)C(=O)C(Cl)C(=O)Nc1ccccc1` (stereo not drawn), the EC50 is 570 nM.

With `CN1CCN(C(=O)c2cc(COc3c(F)cccc3F)on2)CC1c1ccccc1` (stereo not drawn), the EC50 was 3890 nM.

On to `CNc1nc(N)c([N+](=O)[O-])c(Nc2cccc(F)c2)n1`, for which the EC50 was 9390 nM.

In the case of `Cc1cccc(C)c1NC(=O)C(Cl)C(=O)c1ccccc1` (stereo not drawn), the EC50 is 781 nM.

As to `CC(=O)c1ccc(N2CCN(C(=O)c3ccc(Br)cc3)CC2)c(F)c1`, the EC50 was 6920 nM.

As for `Cc1ccc(S(=O)(=O)/N=C(\Sc2ccccc2)c2ccccc2)cc1`, the EC50 was 822 nM.

With `O=C(Oc1ccnc2cc(Cl)ccc12)N1CCCCCC1`, the concentration giving a half-maximal response (EC50) is 3860 nM.

As for `O=C(OCC(=O)N1CCN(C(=O)c2ccco2)CC1)c1cc(-c2ccccc2)nc2ccccc12`, the EC50 is 2830 nM.
